Consider 24 compounds from patent US11845724B2, “USP30 inhibitors and uses thereof” (Vincere Biosciences, Inc., priority 2019, dated 2023).

In general, IC50 refers to the concentration needed to halve the response being measured.

In assay [1] the target is T1, USP30 (Homo sapiens (Human), UniProt Q70CQ3). Kind of assay: Dundee MALDI-TOF mass spectrometry assay (% DUB activity remaining at 1 μM). The following applies: % DUB activity remaining at compound concentration of 1 μM; avg; read-out: Dundee % Activity at 1 μM (avg in vitro MS assay). Type of assay: biochemical. The method, then:
Compounds were tested in a MALDI-TOF assay based on the paper by Ritorto et al. (Ritorto et al. Screening of DUB activity and specificity by MALDI-TOF mass spectrometry. Nat. Commun. 5:4763).
USP30 (25 ng/μl) tested against K48-linked diubiquitin (5.6 μM). USP30 was diluted in a buffer containing 40 mM Tris, 0.01% BSA, 1 mM DTT and K48 in 40 mM Tris, 0.01% BSA.
The compounds were pre-incubated with the USP30 for 5 mins at room temp before the K48 dimer addition. The assay mixture was then incubated for 45 mins at room temp. The assay was stopped by the addition of TFA to a final concentration of 2% (v/v).
Acidified samples of the DUB assays were mixed with 0.5 mM 15N-ubiquitin and then with one part of 2% (v/v) TFA and one part of 2,5 DHAP matrix solution (7.6 mg of 2,5 DHAP in […] ethanol and […] of an aqueous 12 mg ml 1 diammonium hydrogen citrate). Then 250 nl of these solutions were spotted onto an MTP AnchorChip 1,536 TF and this is analysed on the Bruker rapifleX MALDI-TOF.
Table 22 presents the Dundee MALDI-TOF values expressed as % DUB activity remaining at a compound concentration of 1 μM.

The target of assay [2] is recombinant USP30 (amino acids 57-517 of the human sequence) (Homo sapiens (Human), UniProt Q70CQ3). Kind of assay: In vitro USP30 biochemical assay (Ubiquitin-Rhodamine).
recombinant USP30 (amino acids 57-517 of the human sequence), sequence (Q70CQ3 57-517): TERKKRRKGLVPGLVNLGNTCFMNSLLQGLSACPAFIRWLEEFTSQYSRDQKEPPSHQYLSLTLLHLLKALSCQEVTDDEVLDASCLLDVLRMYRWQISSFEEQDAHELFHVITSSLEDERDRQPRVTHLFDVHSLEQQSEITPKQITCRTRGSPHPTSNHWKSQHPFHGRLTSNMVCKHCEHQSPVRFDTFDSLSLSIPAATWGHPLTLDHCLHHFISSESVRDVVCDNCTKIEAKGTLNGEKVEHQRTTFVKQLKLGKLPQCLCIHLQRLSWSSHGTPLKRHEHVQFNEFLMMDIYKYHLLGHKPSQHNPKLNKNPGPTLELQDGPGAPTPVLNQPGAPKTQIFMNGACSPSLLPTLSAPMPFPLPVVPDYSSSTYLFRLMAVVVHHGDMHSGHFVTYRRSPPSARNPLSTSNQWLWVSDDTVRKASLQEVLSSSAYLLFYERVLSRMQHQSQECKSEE
Procedure: In vitro biochemical assay to establish the potency of compounds for USP30 inhibition: a 384-well plate assay using a fluorophore tagged substrate of USP30 was used for in vitro screening of compounds. Each compound was tested at 10 different concentrations (0.5 to 10,000 nM) in duplicate wells. Compounds were pre-incubated at 25° C. for 30 min in an assay buffer consisting of 20 mM Tris/HCl, pH8.0, 1 mM GSH, 0.01% Triton X-100, 0.03% BGG and 1.5 nM recombinant USP30 (amino acids 57-517 of the human sequence with a C-terminal 6-His tag). Following the pre-incubation, Ubiquitin-Rhodamine substrate dissolved in the assay buffer was added at the final concentration of 25 nM to each well and plates were incubated at 25° C. for an additional 75 minutes. The reaction was stopped by adding 10 mM citric acid and fluorescence was read using excitation wavelength 485 nm, emission of 535 nm. Data were analyzed using Graph Pad Prism software with a four-parameter (floating slope) fit to log concentration data to determine IC50s.
Assay [3] has as its target T1, USP30. In words: Dundee MALDI-TOF mass spectrometry assay (IC50). Type of assay: biochemical. The following applies: USP30 25 ng/μl, K48-linked diubiquitin 5.6 μM, avg, read-out: Dundee IC50 μM (avg in vitro MS assay). Summed up: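 USP30 (25 ng/μl) preincubated with compound 5 min at RT in Tris/BSA/DTT buffer, then K48-linked diubiquitin (5.6 μM) added for 45 min at RT. Stopped with 2% TFA; cleavage quantified by MALDI-TOF mass spectrometry to give IC50.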

Where [4] appears, read: read-out: USP30 IC50 μM (avg), Ubiquitin-Rhodamine substrate 25 nM, 1.5 nM recombinant USP30.
[5] abbreviates: USP30 IC50 μM (avg), Ubiquitin-Rhodamine substrate 25 nM, 1.5 nM recombinant USP30.

Read-outs that look alike come from different tables or passages of the source. Bounds are passed on as bounds.

T1 sequence (Q70CQ3 whole entry): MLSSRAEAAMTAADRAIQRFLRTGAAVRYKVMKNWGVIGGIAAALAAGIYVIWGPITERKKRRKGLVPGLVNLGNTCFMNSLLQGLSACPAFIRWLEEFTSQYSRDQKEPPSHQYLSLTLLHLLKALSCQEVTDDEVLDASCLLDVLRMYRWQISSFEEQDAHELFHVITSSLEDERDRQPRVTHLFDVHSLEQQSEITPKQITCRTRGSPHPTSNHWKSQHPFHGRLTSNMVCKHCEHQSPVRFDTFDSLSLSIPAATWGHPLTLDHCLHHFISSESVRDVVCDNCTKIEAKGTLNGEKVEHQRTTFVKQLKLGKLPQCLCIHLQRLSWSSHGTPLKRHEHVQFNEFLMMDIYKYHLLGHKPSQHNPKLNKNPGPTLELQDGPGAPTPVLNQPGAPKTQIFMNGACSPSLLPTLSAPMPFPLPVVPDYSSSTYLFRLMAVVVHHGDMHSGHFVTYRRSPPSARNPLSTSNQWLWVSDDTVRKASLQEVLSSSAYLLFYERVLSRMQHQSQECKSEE

As for `CC(C)(C)NS(=O)(=O)c1ccc(NC(=O)C2Cc3ncccc3CN2C(=O)c2ccc(F)cc2)cc1` (stereo not drawn) [Compound I-60, N-(4-(N-tert-butylsulfamoyl)phenyl)-6-(4-fluorobenzoyl)-5,6,7,8-tetrahydro-1,6-naphthyridine-7-carboxamide], the activity at 1 µM at USP30 [1] is above 75%. Besides, the IC50 in assay [2] (setting [4]) is above 10 µM.
For `CCNS(=O)(=O)c1ccc(NC(=O)[C@H](Cc2ccccc2)N(CC)C(=O)c2ccc(F)cc2)cc1` [Compound I-52, (S)-N-ethyl-N-(1-(4-(N-ethylsulfamoyl)phenylamino)-1-oxo-3-phenylpropan-2-yl)-4-fluorobenzamide], the activity at 1 µM at USP30 [1] is above 75%. For the same compound, the 50% inhibitory concentration (IC50) in assay [2] (setting [4]) was above 10 µM.
The matching figures for `CC(C)(C)NS(=O)(=O)c1ccc(N2C(=O)C(NC(=O)c3ccc(F)cc3)Cc3ccccc32)cc1` (stereo not drawn) [Compound I-20, N-(1-(4-(N-tert-butylsulfamoyl)phenyl)-2-oxo-1,2,3,4-tetrahydroquinolin-3-yl)-4-fluorobenzamide]: above 75% and above 10 µM.
In the case of `CC(C)(C)NS(=O)(=O)c1ccc(NC(=O)[C@H](Cc2ccccc2)NC(=O)OC2CCOCC2)cc1` [Compound I-43, (S)-tetrahydro-2H-pyran-4-yl 1-(4-(N-tert-butylsulfamoyl)phenylamino)-1-oxo-3-phenylpropan-2-ylcarbamate], the activity at 1 µM at USP30 [1] lay in the range of 50 to 75%. The half-inhibitory concentration (IC50) in assay [2] (setting [5]) lay in the range of 1 to 10 µM.
Regarding `CC(C)(C)NS(=O)(=O)c1ccc(NC(=O)C2Cc3ccccc3N2C(=O)c2ccc(F)cc2)cc1` (stereo not drawn) [Compound I-53, N-(4-(N-tert-butylsulfamoyl)phenyl)-1-(4-fluorobenzoyl)indoline-2-carboxamide], the activity at 1 µM at USP30 [1] was above 75%. For the same compound, the IC50 in assay [2] (setting [4]) was above 10 µM.
Regarding `CC(C)(C)NS(=O)(=O)c1ccc(N2Cc3ccccc3CC(NC(=O)c3ccc(F)cc3)C2=O)cc1` (stereo not drawn) [Compound I-21, N-(2-(4-(N-tert-butylsulfamoyl)phenyl)-3-oxo-2,3,4,5-tetrahydro-1H-benzo[c]azepin-4-yl)-4-fluorobenzamide], the activity at 1 µM at USP30 [1] is above 75%. The IC50 in assay [2] (setting [4]) was above 10 µM.
Regarding `Cc1cc(NC(=O)[C@H](Cc2ccccc2)NC(=O)c2ccc(F)cn2)ccc1S(=O)(=O)NC12CC(C1)C2` [Compound I-98, (S)-N-(1-(4-(N-bicyclo[1.1.1]pentan-1-ylsulfamoyl)-3-methylphenylamino)-1-oxo-3-phenylpropan-2-yl)-5-fluoropicolinamide], the IC50 (at USP30 [3]; in assay [2] (setting [5])) was 0.05 to 1 µM in each case.
For the compound `COCCNS(=O)(=O)c1ccc(NC(=O)[C@H](Cc2ccccc2)NC(=O)c2ccc(F)cc2)cc1` [Compound I-132, (S)-4-fluoro-N-(1-(4-(N-(2-methoxyethyl)sulfamoyl)phenylamino)-1-oxo-3-phenylpropan-2-yl)benzamide], the figures for the IC50 (on USP30 [3]; in assay [2] (setting [5])) were below 0.05 µM and 0.05 to 1 µM, respectively.
As to `COc1cc(NC(=O)[C@H](Cc2ccccc2)NC(=O)c2ccc(F)cc2)ccc1S(=O)(=O)NC1CCOCC1` [Compound I-150, (S)-4-fluoro-N-(1-(3-methoxy-4-(N-(tetrahydro-2H-pyran-4-yl)sulfamoyl)phenylamino)-1-oxo-3-phenylpropan-2-yl)benzamide], the IC50 at USP30 [3] was below 0.05 µM; in assay [2] (setting [5]), 0.05 to 1 µM.
In the case of `O=C(NC1(C(=O)Nc2ccc(S(=O)(=O)NC3COC3)cc2)Cc2ccccc2C1)c1ccc(F)cc1` [Compound I-101, 2-(4-fluorobenzamido)-N-(4-(N-oxetan-3-ylsulfamoyl)phenyl)-2,3-dihydro-1H-indene-2-carboxamide], the half-inhibitory concentration (IC50) (at USP30 [3]; in assay [2] (setting [4])) was above 10 µM each time.
On to `CCNS(=O)(=O)c1ccc(NC(=O)[C@H](Cc2cccnc2)N(C)C(=O)c2ccc(F)cc2)cc1` [Compound I-90, (S)-N-(1-(4-(N-ethylsulfamoyl)phenylamino)-1-oxo-3-(pyridin-3-yl)propan-2-yl)-4-fluoro-N-methylbenzamide], for which the 50% inhibitory concentration (IC50) on USP30 [3] was above 10 µM; in assay [2] (setting [5]) it was 1 to 10 µM.
For `O=C(N[C@@H](Cc1ccccc1)C(=O)Nc1ccc(S(=O)(=O)NC23CC(C2)C3)cc1)c1ccccn1` [Compound I-76, (S)-N-(1-(4-(N-bicyclo[1.1.1]pentan-1-ylsulfamoyl)phenylamino)-1-oxo-3-phenylpropan-2-yl)picolinamide], the IC50 at USP30 [3] lay in the range of 0.05 to 1 µM; in assay [2] (setting [5]) it was 1 to 10 µM.
The matching figures for `CCNS(=O)(=O)c1ccc(NC(=O)[C@H](Cc2ccccn2)NC(=O)c2ccc(F)cc2)cc1` [Compound I-139, (S)-N-(1-(4-(N-ethylsulfamoyl)phenylamino)-1-oxo-3-(pyridin-2-yl)propan-2-yl)-4-fluorobenzamide]: 0.05 to 1 µM and 0.05 to 1 µM.
On to `CN1CCC(NS(=O)(=O)c2ccc(NC(=O)[C@H](Cc3ccccc3)NC(=O)c3ccc(F)cc3)cc2)CC1` [Compound I-33, (S)-4-fluoro-N-(1-(4-(N-(1-methylpiperidin-4-yl)sulfamoyl)phenylamino)-1-oxo-3-phenylpropan-2-yl)benzamide], for which the IC50 (on USP30 [3]; in assay [2] (setting [5])) was 0.05 to 1 µM in each case.
With `CCNS(=O)(=O)c1ccc(NC(=O)[C@H](Cc2ccccc2)NC(=O)c2ccc(F)cc2)cn1` [Compound I-105, (S)-N-(1-(6-(N-ethylsulfamoyl)pyridin-3-ylamino)-1-oxo-3-phenylpropan-2-yl)-4-fluorobenzamide], the 50% inhibitory concentration (IC50) (at USP30 [3]; in assay [2] (setting [5])) was 0.05 to 1 µM in each case.
As to `O=C(N[C@@H](Cc1ccccc1)C(=O)Nc1ccc(S(=O)(=O)NC2CCCC2)cc1)c1ccc(F)cn1` [Compound I-74, (S)-N-(1-(4-(N-cyclopentylsulfamoyl)phenylamino)-1-oxo-3-phenylpropan-2-yl)-5-fluoropicolinamide], the half-maximal inhibitory concentration (IC50) (at USP30 [3]; in assay [2] (setting [5])) was 0.05 to 1 µM throughout.
On to `O=C(N[C@@H](Cc1ccccc1)C(=O)Nc1ccc(S(=O)(=O)NCCO)cn1)c1ccc(F)cc1` [Compound I-121, (S)-4-fluoro-N-(1-(5-(N-(2-hydroxyethyl)sulfamoyl)pyridin-2-ylamino)-1-oxo-3-phenylpropan-2-yl)benzamide], for which the half-inhibitory concentration (IC50) (on USP30 [3]; in assay [2] (setting [5])) was 0.05 to 1 µM throughout.
`O=C(N[C@@H](Cc1ccccc1)C(=O)Nc1cccc2c(S(=O)(=O)NC3COC3)cccc12)c1ccc(F)cc1` [Compound I-131, (S)-4-fluoro-N-(1-(5-(N-oxetan-3-ylsulfamoyl)naphthalen-1-ylamino)-1-oxo-3-phenylpropan-2-yl)benzamide]: the IC50 (at USP30 [3]; in assay [2] (setting [5])) was 0.05 to 1 µM each time.
As for `COCC(C)(C)NS(=O)(=O)c1ccc(NC(=O)[C@H](Cc2ccccc2)NC(=O)c2ccc(F)cc2)cc1OC` [Compound I-149, (S)-4-fluoro-N-(1-(3-methoxy-4-(N-(1-methoxy-2-methylpropan-2-yl)sulfamoyl)phenylamino)-1-oxo-3-phenylpropan-2-yl)benzamide], the results for the IC50 (on USP30 [3]; in assay [2] (setting [5])) were below 0.05 µM and 0.05 to 1 µM, respectively.
The corresponding values for `O=C(N[C@@H](Cc1ccccc1)C(=O)Nc1ccc(S(=O)(=O)NC2CCC2)cc1)c1ccc(F)cn1` [Compound I-75, (S)-N-(1-(4-(N-cyclobutylsulfamoyl)phenylamino)-1-oxo-3-phenylpropan-2-yl)-5-fluoropicolinamide] are 0.05 to 1 µM and 0.05 to 1 µM.
As for `COc1cc(NC(=O)[C@H](Cc2ccccc2)NC(=O)c2ccc(F)cc2)ccc1S(=O)(=O)NCCO` [Compound I-152, (S)-4-fluoro-N-(1-(4-(N-(2-hydroxyethyl)sulfamoyl)-3-methoxyphenylamino)-1-oxo-3-phenylpropan-2-yl)benzamide], the half-inhibitory concentration (IC50) on USP30 [3] was below 0.05 µM; in assay [2] (setting [5]), 0.05 to 1 µM.
With `CC1(NS(=O)(=O)c2ccc(NC(=O)[C@H](Cc3ccccc3)NC(=O)c3ccc(F)cc3)cc2)COC1` [Compound I-136, (S)-4-fluoro-N-(1-(4-(N-(3-methyloxetan-3-yl)sulfamoyl)phenylamino)-1-oxo-3-phenylpropan-2-yl)benzamide], the IC50 (on USP30 [3]; in assay [2] (setting [4])) was below 0.05 µM in each case.
Turning to `CC(C)(C)NS(=O)(=O)c1ccc(NC(=O)[C@H](Cc2ccccc2)NC(=O)c2cccnc2)cc1` [Compound I-87, (S)-N-(1-(4-(N-tert-butylsulfamoyl)phenylamino)-1-oxo-3-phenylpropan-2-yl)nicotinamide], the 50% inhibitory concentration (IC50) (at USP30 [3]; in assay [2] (setting [5])) was 0.05 to 1 µM each time.
On to `CC(C)(C)NS(=O)(=O)c1ccc(NC(=O)[C@H](Cc2ccccc2)NC(=O)c2ccc(F)cc2)cc1F` [Compound I-156, (S)-N-(1-(4-(N-tert-butylsulfamoyl)-3-fluorophenylamino)-1-oxo-3-phenylpropan-2-yl)-4-fluorobenzamide], for which the IC50 (on USP30 [3]; in assay [2] (setting [4])) was below 0.05 µM in each case.
